Measurements: patent US20230414569A1, “ORAL CANINE FEED AND METHODS FOR CONTROLLING FLEA INFESTATIONS IN A CANINE” (In the Bowl Animal Health, Inc., priority 2021, published 2023)

Tests used:
[1] = Plasma concentration in dogs after daily oral liquid dosing (Example 1); assay type: in vivo; conditions: dog plasma, individual canines, 0.75 mg/kg/day oral days 0-29; Day -1 (pre-dose)
Description: Each dog in the treatment group is to receive by mouth a liquid formulation of isoxazoline. The dosage of 0.75 mg/kg is to be administered to the dogs on each of days 0-29.
Dogs in the control group are not to receive isoxazoline or any other flea control treatment. Each dog in the treatment group is to be offered its daily ration (dry food) and the individual doses of liquid formulation are to be administered after the individual dog has eaten at least 25% of its total daily ration. After receiving the dose of isoxazoline, the dogs are to be allowed to continue eating. This mimics incorporating the isoxazoline in feed. Each dog in the treatment group and the control group is to be experimentally infested with 100 unfed adult fleas on test days 2, 5, 12, 20 and 35. Comb counts for live adult fleas are to be conducted on days 4, 7, 14, 21 and 37.

[2] = Plasma levels in dogs given medicated daily feed at different dosage levels (Example 6); assay type: in vivo, dog; set-up: unit not given here
Source text: Methods: A pool of dogs are to be preliminarily infested with ˜50 unfed adult R. sanguineus ticks in order to produce dogs that can suitably sustain a reliable infestation rate, defined as approximately 25% of attached ticks being live at the end of a 72-hour period. The 24 dogs with the highest live attached tick counts are to be selected for inclusion in the study. The 18 dogs with the highest live attached tick counts are to be randomly assigned to one of a control group and 2 treatment groups. The 6 dogs with the next highest live attached tick counts are to be assigned to a third treatment group.
The dogs are to be housed individually during the study period and are to have ad libitum access to water.
Each dog in a treatment group (test groups 2-4) is to receive a medicated daily feed from study days 0-49. The medicated daily feed is to be offered to the dogs for 1 hour on each of days 0-49 according to test groups listed in TABLE 7.
Blood is to be drawn at 0, 1, 3, 6, 10, 24, 48, 96, 168, 240 and 336 hours after the initial dose of isoxazoline is administered.

O=C(CNC(=O)c1sc(C2=NO[C@@](c3cc(Cl)c(F)c(Cl)c3)(C(F)(F)F)C2)c2c1CCC2)NCC(F)F [Mivorilaner, 3-[(5S)-5-(3,5-dichloro-4-fluorophenyl)-5-(trifluoromethyl)-4,5-dihydroisoxazol-3-yl]-N-[2-[(2,2-difluoroethyl)amino]-2-oxoethyl]-5,6-dihydro-4H-cyclopenta[c]thiophene-1-carboxamide]
Mivorilaner Concentration [1]: BLQ | average plasma concentration of isoxazoline ([2]; Group 2 - 106 mg/kg feed (anticipated 1 mg/kg daily), 1 hr): 49.98 | average plasma concentration of isoxazoline ([2]; Group 2 - 106 mg/kg feed (anticipated 1 mg/kg daily), 3 hr): 292.00 | average plasma concentration of isoxazoline ([2]; Group 2 - 106 mg/kg feed (anticipated 1 mg/kg daily), 6 hr): 539.00 | average plasma concentration of isoxazoline ([2]; Group 2 - 106 mg/kg feed (anticipated 1 mg/kg daily), 10 hr): 505.40 | average plasma concentration of isoxazoline ([2]; Group 2 - 106 mg/kg feed (anticipated 1 mg/kg daily), 24 hr): 458.60 | average plasma concentration of isoxazoline ([2]; Group 2 - 106 mg/kg feed (anticipated 1 mg/kg daily), 48 hr): 771.83 | average plasma concentration of isoxazoline ([2]; Group 2 - 106 mg/kg feed (anticipated 1 mg/kg daily), 96 hr): 1570.50 | average plasma concentration of isoxazoline ([2]; Group 2 - 106 mg/kg feed (anticipated 1 mg/kg daily), 168 hr): 2156.67 | average plasma concentration of isoxazoline ([2]; Group 2 - 106 mg/kg feed (anticipated 1 mg/kg daily), 240 hr): 3003.33 | average plasma concentration of isoxazoline ([2]; Group 2 - 106 mg/kg feed (anticipated 1 mg/kg daily), 336 hr): 3290.00 | average plasma concentration of isoxazoline ([2]; Group 3 - 106 mg/kg feed (anticipated 1 mg/kg daily), 1 hr): 40.41 | average plasma concentration of isoxazoline ([2]; Group 3 - 106 mg/kg feed (anticipated 1 mg/kg daily), 3 hr): 264.83 | average plasma concentration of isoxazoline ([2]; Group 3 - 106 mg/kg feed (anticipated 1 mg/kg daily), 6 hr): 467.50 | average plasma concentration of isoxazoline ([2]; Group 3 - 106 mg/kg feed (anticipated 1 mg/kg daily), 10 hr): 419.17 | average plasma concentration of isoxazoline ([2]; Group 3 - 106 mg/kg feed (anticipated 1 mg/kg daily), 24 hr): 435.17 | average plasma concentration of isoxazoline ([2]; Group 3 - 106 mg/kg feed (anticipated 1 mg/kg daily), 48 hr): 781.83 | average plasma concentration of isoxazoline ([2]; Group 3 - 106 mg/kg feed (anticipated 1 mg/kg daily), 96 hr): 1596.67 | average plasma concentration of isoxazoline ([2]; Group 3 - 106 mg/kg feed (anticipated 1 mg/kg daily), 168 hr): 2406.67 | average plasma concentration of isoxazoline ([2]; Group 3 - 106 mg/kg feed (anticipated 1 mg/kg daily), 240 hr): 3026.67 | average plasma concentration of isoxazoline ([2]; Group 3 - 106 mg/kg feed (anticipated 1 mg/kg daily), 336 hr): 3516.67 | average plasma concentration of isoxazoline ([2]; Group 4 - 318 mg/kg feed (anticipated 3 mg/kg daily), 1 hr): 143.75 | average plasma concentration of isoxazoline ([2]; Group 4 - 318 mg/kg feed (anticipated 3 mg/kg daily), 3 hr): 846.50 | average plasma concentration of isoxazoline ([2]; Group 4 - 318 mg/kg feed (anticipated 3 mg/kg daily), 6 hr): 1265.67 | average plasma concentration of isoxazoline ([2]; Group 4 - 318 mg/kg feed (anticipated 3 mg/kg daily), 10 hr): 1198.17 | average plasma concentration of isoxazoline ([2]; Group 4 - 318 mg/kg feed (anticipated 3 mg/kg daily), 24 hr): 1021.17 | average plasma concentration of isoxazoline ([2]; Group 4 - 318 mg/kg feed (anticipated 3 mg/kg daily), 48 hr): 2011.67 | average plasma concentration of isoxazoline ([2]; Group 4 - 318 mg/kg feed (anticipated 3 mg/kg daily), 96 hr): 3928.33 | average plasma concentration of isoxazoline ([2]; Group 4 - 318 mg/kg feed (anticipated 3 mg/kg daily), 168 hr): 6461.67 | average plasma concentration of isoxazoline ([2]; Group 4 - 318 mg/kg feed (anticipated 3 mg/kg daily), 240 hr): 8696.67 | average plasma concentration of isoxazoline ([2]; Group 4 - 318 mg/kg feed (anticipated 3 mg/kg daily), 336 hr): 11600.00
